{"source": "patent US20200038414A1", "about": "“METHODS OF TREATING CONSTIPATION USING AMINOSTEROL COMPOSITIONS” (Enterin, Inc., priority 2018, published 2020)", "system": "PD patients with constipation", "assay": "Phase 2 trial Stage 1: adverse events", "format": "in vivo, human", "conditions": "Stage 1, dosed 10", "from_the_text": "Tolerability limits included diarrhea or vomiting."}
{"smiles": "CC(C)[C@@H](CC[C@@H](C)[C@H]1CC[C@H]2[C@@H]3[C@H](O)C[C@H]4C[C@@H](NCCCNCCCCN)CC[C@]4(C)[C@H]3CC[C@]12C)OS(=O)(=O)O", "note": "(single isomer, unassigned) [squalamine (ENT-01)]", "values": [{"measurement": "adverse event: Abdominal pain, Mild", "value": "2 (20) n, %"}, {"measurement": "adverse event: Abdominal pain, Moderate", "value": "3 (30) n, %"}, {"measurement": "adverse event: Diarrhea, Mild", "value": "1 (10) n, %"}, {"measurement": "adverse event: Diarrhea, Moderate", "value": "3 (30) n, %"}, {"measurement": "adverse event: Diarrhea, Severe", "value": "0 n, %"}, {"measurement": "adverse event: Difficulty falling asleep, Mild", "value": "0 n, %"}, {"measurement": "adverse event: Difficulty falling asleep, Moderate", "value": "0 n, %"}, {"measurement": "adverse event: Dizziness, Mild", "value": "0 n, %"}, {"measurement": "adverse event: Dizziness, Moderate", "value": "0 n, %"}, {"measurement": "adverse event: Eye infection, Mild", "value": "0 n, %"}, {"measurement": "adverse event: Eye infection, Moderate", "value": "0 n, %"}, {"measurement": "adverse event: Flatulence, Mild", "value": "2 (20) n, %"}, {"measurement": "adverse event: Flatulence, Moderate", "value": "0 n, %"}, {"measurement": "adverse event: Headache, Mild", "value": "1 (10) n, %"}, {"measurement": "adverse event: Headache, Moderate", "value": "0 n, %"}, {"measurement": "adverse event: Increased urinary frequency, Mild", "value": "0 n, %"}, {"measurement": "adverse event: Increased urinary frequency, Moderate", "value": "0 n, %"}, {"measurement": "adverse event: Nausea, Mild", "value": "4 (40) n, %"}, {"measurement": "adverse event: Nausea, Moderate", "value": "0 n, %"}, {"measurement": "adverse event: Skin lesions-rash, Mild", "value": "0 n, %"}, {"measurement": "adverse event: Skin lesions-rash, Moderate", "value": "0 n, %"}, {"measurement": "adverse event: Urinary retention, Mild", "value": "0 n, %"}, {"measurement": "adverse event: Urinary retention, Moderate", "value": "0 n, %"}, {"measurement": "adverse event: Urinary tract infection, Mild", "value": "0 n, %"}, {"measurement": "adverse event: Urinary tract infection, Moderate", "value": "0 n, %"}, {"measurement": "adverse event: Vomiting, Mild", "value": "1 (10) n, %"}, {"measurement": "adverse event: Vomiting, Moderate", "value": "0 n, %"}, {"measurement": "adverse event: Worsening acid reflux, Mild", "value": "0 n, %"}, {"measurement": "adverse event: Worsening acid reflux, Moderate", "value": "0 n, %"}, {"measurement": "adverse event: Worsening hemorrhoid, Mild", "value": "0 n, %"}, {"measurement": "adverse event: Worsening hemorrhoid, Moderate", "value": "0 n, %"}, {"measurement": "adverse event: Blood in urine, Mild", "setting": "unrelated to ENT-01", "value": "1 (10) n, %"}, {"measurement": "adverse event: Blood in urine, Moderate", "setting": "unrelated to ENT-01", "value": "0 n, %"}, {"measurement": "adverse event: Loss of appetite, Mild", "setting": "unrelated to ENT-01", "value": "1 (10) n, %"}, {"measurement": "adverse event: Loss of appetite, Moderate", "setting": "unrelated to ENT-01", "value": "0 n, %"}, {"measurement": "adverse event: Lower GI bleed, Severe", "setting": "unrelated to ENT-01", "value": "0 n, %"}]}
